According to patent US20150183737A1, “COMPOSITIONS AND METHODS FOR SUBSTRATE-SELECTIVE INHIBITION OF ENDOCANNABINOID OXYGENATION” (Vanderbilt University, priority 2012, published 2015):
“Also recorded” adds a separate entry of the source.

Legend:
ICR mice [1] = experiment: Novel object recognition; format: in vivo; conditions: 10 mg/kg i.p., prior to object memory retrieval
Protocol: Mice were handled 4 days prior to training for at least 1 min per day. During pre-training, mice were placed in an open Plexiglas rectangular chamber for 10 minutes in order for the mice to become familiar with the testing environment. Twenty-four hours later, the mice were placed into the same rectangular chamber with two identical sample objects, yellow rubber ducks, for 10 minutes in order for the mice to become familiar with the objects. During training, the sample objects were placed in opposite corners in the back of the chamber 5 cm from each wall and secured by weight to the floor of the chamber. Twenty-four hours later, the mice were placed into the chamber again with one sample or familiar object and a novel object, a white leaf statue, for 5 minutes. During testing, the objects were placed in opposite corners in the back of the chamber 5 cm from each wall and secured by weight to the floor of the chamber.
To determine exploration time with the sample and novel objects, each mouse was timed when interacting with the sample or novel object when the nose of the mouse was in contact with the object or directed toward the object within a 2 cm distance of the object. […] In addition, a discrimination ratio (e.g., ratio of a mouse's interaction with a novel object to that mouse's total interaction with both sample and novel objects) was determined. […]

[2] = Detection of Compound A in brain extract; conditions: 2 hours after i.p. injection, LC-MS/MS
[3] = Gastrointestinal hemorrhage; conditions: in vivo
humanized rat FAAH = biological target: T1, humanized rat FAAH (Rattus norvegicus, UniProt P97612, A377T/F194Y/I491V/L192F/S435N/V495M); experiment: FAAH activity (Compound A); format: biochemical; conditions: in vitro
T1 sequence (P97612 30-579 L192F/F194Y/A377T/S435N/I491V/V495M limits assumed): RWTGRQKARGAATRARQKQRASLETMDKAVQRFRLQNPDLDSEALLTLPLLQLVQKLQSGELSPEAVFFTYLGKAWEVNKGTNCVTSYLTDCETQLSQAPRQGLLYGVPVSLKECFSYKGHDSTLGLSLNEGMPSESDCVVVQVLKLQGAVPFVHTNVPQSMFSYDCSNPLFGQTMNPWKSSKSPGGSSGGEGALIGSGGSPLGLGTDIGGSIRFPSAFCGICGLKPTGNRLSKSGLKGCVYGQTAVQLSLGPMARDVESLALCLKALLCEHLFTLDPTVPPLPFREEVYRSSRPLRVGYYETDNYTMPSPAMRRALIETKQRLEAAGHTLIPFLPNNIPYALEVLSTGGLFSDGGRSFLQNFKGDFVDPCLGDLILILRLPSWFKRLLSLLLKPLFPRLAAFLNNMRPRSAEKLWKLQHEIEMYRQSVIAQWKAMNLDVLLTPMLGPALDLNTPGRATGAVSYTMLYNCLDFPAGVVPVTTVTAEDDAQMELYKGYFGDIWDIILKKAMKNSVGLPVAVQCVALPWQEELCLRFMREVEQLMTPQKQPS

[4] = test system: brain eCB, AA and PG levels; experiment: Brain eCB, NAE, MAG, AA and PG levels after i.p. injection; format: in vivo, mice
ICR mice [5] = experiment: Elevated plus-maze (EPM); format: in vivo; conditions: 10 mg/kg
ICR mice [6] = experiment: Light-dark box; format: in vivo
[7] = 10 mg/kg i.p. (Compound A: any dose tested), 2 hours
[8] = 2 hours after i.p administration, dose not stated

## COc1ccc2c(c1)c(CC(=O)N1CCOCC1)c(C)n2C(=O)c1ccc(Cl)cc1 [Compound A, 2-[1-(4-Chloro-benzoyl)-5-methoxy-2-methyl-1H-indol-3-yl]-1-morpholin-4-yl-ethanone]
ICR mice [1]
  Memory deficits in the novel object recognition assay: did not induce memory deficits
[2]
  Indomethacin in brain extract after Compound A treatment: not detected
  Presence of compound in brain: present in the brain
[3]
  Gastrointestinal hemorrhage: not to cause gastrointestinal hemorrhage
Humanized rat FAAH
  Inhibition of FAAH: did not inhibit
[4]; 3 mg/kg i.p., 2 hours, male ICR mice
  Whole brain AEA levels: significantly increased
[4]; 10 mg/kg
  Brain 2-AG levels in wild type littermates of COX-2 knockout mice: significantly increased
  Brain 2-AG levels, meta-analysis of 12 cohorts: 109 % of vehicle
  Brain AA or PG levels in WT or COX-2^(−/−) mice: did not affect
  Brain AEA levels in wild type littermates of COX-2 knockout mice: significantly increased
  Brain AEA, meta-analysis of 12 cohorts: 139 % of vehicle
  Brain levels of MAGs other than 2-AG: did not affect
[4]; [7]
  Brain AA levels: did not significantly affect
  Brain PG levels: did not affect
[4]; 10 mg/kg i.p. (highest dose), 2 hours, vs vehicle
  Brain 2-AG levels: non-significant trend to increase; also recorded: significantly increased
[4]; 10 mg/kg i.p., 2 hours
  Brain levels of NAEs other than AEA: not any other NAE; also recorded: no other NAE
[4]; 10 mg/kg i.p., 2 hours, vs vehicle
  Brain AEA levels: significantly increased
[4]; [8]
  Brain 2-AG levels (Example 8): without affecting
  Brain AEA levels (Example 8): increased
[4]; combination treatment
  Brain 2-AG levels after JZL-184 treatment, compared to JZL-184 alone: additional significant increase
  Brain AEA levels when combined with PF-3845, compared to PF-3845 alone: significant additional increase
[4]; dose not stated
  Brain or lung PG levels (Example 8): did not affect
[4]; mouse, in vivo
  Brain AEA and 2-AG levels in CB1^(−/−) mice: significantly increased
  Brain PG levels in CB1^(−/−) mice: no effect; also recorded: without affecting
[4]; present in wild type littermates
  Ability to increase brain AEA levels in COX-2 knockout (KO) mice: absent
[4]; similar extent in both genotypes
  Brain AEA levels in WT and FAAH KO mice: increased
ICR mice [5]
  Open arm latency: significantly reduced; also recorded: decreased
  Other EPM parameters (open arm time, total distance traveled): did not affect; also recorded: did not increase
ICR mice [6]; 10 mg/kg
  Light-zone time: significantly increased
  Number of light-zone entries: significantly increased
  Overall locomotor activity in the light-dark box: without significantly affecting
ICR mice [6]; Rimonabant 3 mg/kg
  Anxiolytic effects in the light-dark box with Rimonabant: blocked
